Assay results reported in patent publication US9809602B2, “Compounds for treating viral infections” (INSTITUT PASTEUR KOREA, priority 2014, dated 2017).

Tested on: genotype 1/2 chimeric cell culture derived HCV (HCVcc)
Test: Genotype 1/2 chimeric HCVcc assay (nano-luciferase, HCV replication)
Assay type: cell-based
Conditions: Hepatitis C virus
Outline: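 Huh-7.5 cells (2400/well) pretreated 2 h with serially diluted compound, then infected with nano-luciferase genotype 1a/2a (JFH-1) chimeric HCVcc. At 72 h post infection, nano-luciferase reported replication and cellular ATP reported cytotoxicity; EC50 and CC50 by non-linear regression.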

Row | SMILES | EC50 (Huh7.5, 72 h) [nM] | EC50 [nM]
1 | Cc1sc(NC(=O)C(=O)NCc2c(-n3cccc3)sc3c2CCNC3)c(C(=O)OC(C)(C)C)c1C [Compound 361] | 100 to 1000 | –
2 | Cc1sc(NC(=O)NCc2c(-c3cccc(Cl)c3)sc3c2CCNC3)c(C(=O)OC(C)(C)C)c1C [Compound 363] | < 100 | –
3 | Cc1sc(NC(=O)NCc2c(-c3cccc(F)c3)sc3c2CCNC3)c(C(=O)OC(C)(C)C)c1C [Compound 364] | < 100 | –
4 | Cc1sc(NC(=O)NCc2c(-c3cccc(Cl)c3)sc3c2CCN(CCN(C)C)C3)c(C(=O)OC(C)(C)C)c1C [Compound 365] | 100 to 1000 | –
5 | Cc1sc(NC(=O)NCc2c(-c3cccc(F)c3)sc3c2CCN(CCN(C)C)C3)c(C(=O)OC(C)(C)C)c1C [Compound 366] | < 100 | –
6 | Cc1sc(NC(=O)NCc2c(C(F)(F)F)sc3c2CCN(CCN(C)C)C3)c(C(=O)OC(C)(C)C)c1C [Compound 367] | < 100 | –
7 | Cc1sc(NC(=O)NCc2c(-c3ccc(F)cc3)sc3c2CCNC3)c(C(=O)OC(C)(C)C)c1C [Compound 368] | 100 to 1000 | –
8 | Cc1sc(NC(=O)NCc2c(-c3ccc(Cl)cc3)sc3c2CCNC3)c(C(=O)OC(C)(C)C)c1C [Compound 369] | < 100 | –
9 | COc1sc(NC(=O)NCc2c(C(F)(F)F)sc3c2CCNC3)c(C(=O)OC(C)(C)C)c1C [Compound 371] | < 100 | –
10 | CC(C)(C)OC(=O)c1c(NC(=O)NCc2c(C(F)(F)F)sc3c2CCN(CCO)C3)sc2c1CCCC2 [Compound 373] | < 100 | –
11 | NC(=O)c1c(NC(=O)NCc2c(C(F)(F)F)sc3c2CCNC3)sc2c1CCCC2 [Compound 374] | 1000 to 10000 | –
12 | O=C(NCCCN1CCC(N2CCCCC2)CC1)C1=Cc2sc3c(c2CS1)CCCC3 [Compound 1001] | – | 100 to 1000
13 | O=C(NCCCN1CCC(N2CCCCC2)CC1)c1cc2c(s1)CCCC2 [Compound 1002] | – | > 10000
14 | O=C(NCCCN1CCC(N2CCCCC2)CC1)c1ccc(C2CCCCC2)cc1 [Compound 1003] | – | 100 to 1000
15 | O=C(NCCCN1CCCC1)c1cc2c(s1)CCCC2 [Compound 1004] | – | > 10000
16 | O=C(NCCCN1CCC(N2CCCCC2)CC1)c1ccc(-c2ccccc2)cc1 [Compound 1005] | – | 100 to 1000
17 | O=C(NCCCN1CCCC1)c1ccc(C2CCCCC2)cc1 [Compound 1006] | – | 1000 to 10000
18 | O=C(c1ccc(C2CCCCC2)cc1)N1CCC(N2CCCCC2)CC1 [Compound 1007] | – | 1000 to 10000
19 | O=C(NCCCN1CCC(N2CCCCC2)CC1)c1ccc2cc[nH]c2c1 [Compound 1008] | – | > 10000
20 | O=C(NCCCN1CCC(N2CCCCC2)CC1)c1cc2ccccc2s1 [Compound 1009] | – | 1000 to 10000
21 | O=C(NCCCN1CCC(N2CCCCC2)CC1)c1cc2ccccc2[nH]1 [Compound 1010] | – | 1000 to 10000

Row | SMILES | EC50 (Huh7.5, 72 h) [nM] | EC50 [nM]
22 | O=C(NCCCN1CCC(N2CCCCC2)CC1)c1ccccc1-c1ccccc1 [Compound 1011] | – | > 10000
23 | O=C(NCCCN1CCC(N2CCCCC2)CC1)c1ccc(Cc2ccccc2)cc1 [Compound 1012] | – | 100 to 1000
24 | O=C(NCCCN1CCC(N2CCCCC2)CC1)c1ccc(Oc2ccccc2)cc1 [Compound 1013] | – | 100 to 1000
25 | Cc1cccc(-c2ccc(C(=O)NCCCN3CCC(N4CCCCC4)CC3)cc2)c1 [Compound 1014] | – | 1000 to 10000
26 | Cc1ccccc1-c1ccc(C(=O)NCCCN2CCC(N3CCCCC3)CC2)cc1 [Compound 1015] | – | 100 to 1000
27 | Cc1ccc(-c2ccc(C(=O)NCCCN3CCC(N4CCCCC4)CC3)cc2)cc1 [Compound 1016] | – | 100 to 1000
28 | COc1ccccc1-c1ccc(C(=O)NCCCN2CCC(N3CCCCC3)CC2)cc1 [Compound 1017] | – | 1000 to 10000
29 | COc1cccc(-c2ccc(C(=O)NCCCN3CCC(N4CCCCC4)CC3)cc2)c1 [Compound 1018] | – | 100 to 1000
30 | O=C(NCCCN1CCC(N2CCCCC2)CC1)c1ccc(-c2ccc(C(F)(F)F)cc2)cc1 [Compound 1019] | – | 100 to 1000
31 | O=C(NCCCN1CCC(N2CCCCC2)CC1)c1ccc(-c2ccc(F)cc2)cc1 [Compound 1020] | – | 100 to 1000
32 | O=C(NCCCN1CCC(N2CCCCC2)CC1)c1ccc(-c2ccc(Cl)cc2)cc1 [Compound 1021] | – | 100 to 1000
33 | COc1ccc(-c2ccc(C(=O)NCCCN3CCC(N4CCCCC4)CC3)cc2)cc1 [Compound 1022] | – | < 100
34 | O=C(NCCCN1CCC(N2CCCCC2)CC1)c1ccc(-c2cccs2)cc1 [Compound 1023] | – | 100 to 1000
35 | O=C(NCCCN1CCC(N2CCCCC2)CC1)c1ccc(-c2ccncc2)cc1 [Compound 1024] | – | > 10000
36 | O=C(NCCCN1CCC(N2CCCCC2)CC1)c1cccc(-c2ccccc2)c1 [Compound 1025] | – | 1000 to 10000
37 | O=C(NCCCN1CCC(N2CCCCC2)CC1)c1ccc(-c2cccc(C(F)(F)F)c2)cc1 [Compound 1027] | – | 100 to 1000
38 | O=C(NCCCN1CCC(N2CCCCC2)CC1)c1ccc(-c2ccccc2C(F)(F)F)cc1 [Compound 1028] | – | 100 to 1000
39 | O=C(NCCCN1CCC(N2CCCCC2)CC1)c1ccc(N2CCOCC2)cc1 [Compound 1029] | – | > 10000
40 | O=C(NCCCN1CCC(N2CCCCC2)CC1)c1ccc(N2CCCCC2)cc1 [Compound 1030] | – | 1000 to 10000
41 | O=C(NCCCN1CCC(N2CCCCC2)CC1)c1cccc(Oc2ccccc2)c1 [Compound 1031] | – | 1000 to 10000
42 | COc1ccc(Oc2ccc(C(=O)NCCCN3CCC(N4CCCCC4)CC3)cc2)cc1 [Compound 1032] | – | 100 to 1000

Row | SMILES | EC50 (Huh7.5, 72 h) [nM] | EC50 [nM]
43 | O=C(NCCCN1CCC(N2CCCCC2)CC1)c1ccc(Oc2ccc(F)cc2)cc1 [Compound 1033] | – | 1000 to 10000
44 | O=C(NCCCN1CCC(N2CCCCC2)CC1)c1ccc(Oc2ccc(Br)cc2)cc1 [Compound 1034] | – | 1000 to 10000
45 | N#Cc1ccc(Oc2ccc(C(=O)NCCCN3CCC(N4CCCCC4)CC3)cc2)cc1 [Compound 1035] | – | > 10000
46 | O=C(NCCCN1CCN(Cc2ccccc2)CC1)c1ccc(Oc2ccccc2)cc1 [Compound 1036] | – | 1000 to 10000
47 | O=C(NCCCN1CCN(C2CCCCC2)CC1)c1ccc(Oc2ccccc2)cc1 [Compound 1037] | – | > 10000
48 | O=C(NCCCN1CCN(C(=O)C2CCCCC2)CC1)c1ccc(Oc2ccccc2)cc1 [Compound 1038] | – | > 10000
49 | O=C(NCCCN1CCN(C(=O)c2ccccc2)CC1)c1ccc(Oc2ccccc2)cc1 [Compound 1039] | – | > 10000
50 | O=C(NCCCN1CCN(c2ccccc2)CC1)c1ccc(Oc2ccccc2)cc1 [Compound 1040] | – | 1000 to 10000
51 | O=C(NCCCN1CCC(c2ccccc2)CC1)c1ccc(Oc2ccccc2)cc1 [Compound 1041] | – | 1000 to 10000
52 | O=C(NCCCN1CCC(Cc2ccccc2)CC1)c1ccc(Oc2ccccc2)cc1 [Compound 1042] | – | 1000 to 10000
53 | O=C(NCCCN1CCC(N2CCCCC2)CC1)c1ccc(OCc2ccc(F)cc2)cc1 [Compound 1043] | – | 1000 to 10000
54 | O=C(NCCN1CCC(N2CCCCC2)CC1)c1ccc(Oc2ccccc2)cc1 [Compound 1044] | – | 1000 to 10000
55 | O=C(NCCCCN1CCC(N2CCCCC2)CC1)c1ccc(Oc2ccccc2)cc1 [Compound 1045] | – | 100 to 1000
56 | c1ccc(Oc2ccc(CNCCCN3CCC(N4CCCCC4)CC3)cc2)cc1 [Compound 1046] | – | 100 to 1000
57 | CN(CCCN1CCC(N2CCCCC2)CC1)C(=O)c1ccc(Oc2ccccc2)cc1 [Compound 1047] | – | 1000 to 10000
58 | O=C(Nc1ccc(N2CCC(N3CCCCC3)CC2)cc1)c1ccc(Oc2ccccc2)cc1 [Compound 1048] | – | 1000 to 10000
59 | O=C(Nc1cccc(N2CCC(N3CCCCC3)CC2)c1)c1ccc(Oc2ccccc2)cc1 [Compound 1049] | – | 100 to 1000
60 | O=C(NCCCN1CCC(N2CCOCC2)CC1)c1ccc(Oc2ccccc2)cc1 [Compound 1050] | – | 1000 to 10000
61 | O=C(NCCCOc1ccc(N2CCCCC2)cc1)c1ccc(Oc2ccccc2)cc1 [Compound 1051] | – | > 10000
62 | O=C(CCCN1CCC(N2CCCCC2)CC1)Nc1ccc(Oc2ccccc2)cc1 [Compound 1052] | – | 100 to 1000
63 | O=C(NCCC(=O)N1CCC(N2CCCCC2)CC1)c1ccc(Oc2ccccc2)cc1 [Compound 1053] | – | 1000 to 10000

Row | SMILES | EC50 (Huh7.5, 72 h) [nM] | EC50 [nM]
64 | O=C(c1ccc(Oc2ccccc2)cc1)N1CCC(C(=O)N2CCC(N3CCCCC3)CC2)C1 (stereo not shown) [Compound 1054] | – | > 10000
65 | O=C(NCCCN1CCC(c2ccncc2)CC1)c1ccc(Oc2ccccc2)cc1 [Compound 1055] | – | > 10000
66 | O=C(NCCCN1CCC(Oc2ccccc2)CC1)c1ccc(Oc2ccccc2)cc1 [Compound 1056] | – | 1000 to 10000
67 | O=C(NCCNc1ccc(N2CCCCC2)cc1)c1ccc(Oc2ccccc2)cc1 [Compound 1057] | – | 1000 to 10000
68 | O=C(NCCCN1CCC(Nc2ccccc2)CC1)c1ccc(Oc2ccccc2)cc1 [Compound 1058] | – | 1000 to 10000
69 | O=C(NC1CC(N2CCC(N3CCCCC3)CC2)C1)c1ccc(Oc2ccccc2)cc1 (stereo not shown) [Compound 1059] | – | 1000 to 10000
70 | O=S(=O)(NCCCN1CCC(N2CCCCC2)CC1)c1ccc(Oc2ccccc2)cc1 [Compound 1060] | – | 100 to 1000
71 | O=C(NCCCN1CCC(N2CCCCC2)CC1)c1ccc(Oc2ccccc2F)cc1 [Compound 1061] | – | 1000 to 10000
72 | O=C(NCCCN1CCC(N2CCCCC2)CC1)c1ccc(Oc2cccc(F)c2)cc1 [Compound 1062] | – | > 10000
73 | COc1ccccc1Oc1ccc(C(=O)NCCCN2CCC(N3CCCCC3)CC2)cc1 [Compound 1063] | – | > 10000
74 | COc1cccc(Oc2ccc(C(=O)NCCCN3CCC(N4CCCCC4)CC3)cc2)c1 [Compound 1064] | – | > 10000
75 | CN1CCC(C2CCN(CCCNC(=O)c3ccc(Oc4ccccc4)cc3)CC2)CC1 [Compound 1065] | – | 100 to 1000
76 | O=C(NCCCN1CCC(N2CCCCC2)CC1)c1ccc2c(c1)NC(=O)c1ccccc1S2 [Compound 1066] | – | 1000 to 10000
77 | O=C(NCCCN1CCC(N2CCCC2)CC1)c1ccc(Oc2ccccc2)cc1 [Compound 1067] | – | 100 to 1000
78 | CN(C)C1CCN(CCCNC(=O)c2ccc(Oc3ccccc3)cc2)CC1 [Compound 1068] | – | 100 to 1000
79 | CC(C)C1CCN(C2CCN(CCCNC(=O)c3ccc(Oc4ccccc4)cc3)CC2)CC1 [Compound 1069] | – | 100 to 1000
80 | O=C(NCCCN1CCC(N2CCCCC2)CC1)c1ccc(Nc2ccccc2)cc1 [Compound 1070] | – | 1000 to 10000
81 | O=C(NCCCN1CCC(C2CCCCC2)CC1)c1ccc(Oc2ccccc2)cc1 [Compound 1071] | – | 1000 to 10000
82 | O=C(NCCCN1CCC(C2CCNCC2)CC1)c1ccc(Oc2ccccc2)cc1 [Compound 1072] | – | 1000 to 10000
